# Values of other authors as cited in US9889132B2, “Pharmaceutical compositions for the treatment of psoriasis” (Special Product's Line S.p.A., priority 2014, dated 2018).
smiles,measurement,setting,value
"COc1cc(Nc2nc(C)cc(C)n2)cc(OC)c1OC [4,6-dimethyl-N-(3,4,5-trimethoxyphenyl)pyrimidin-2-amine]",antimitotic action,mammal cells,considerable antimitotic action
same,LD50 i.p.,mouse; i.p.,780 mg/kg
same,LD50 per os,mouse; per os,4110 mg/kg
